# Experimental data: ChEMBL document CHEMBL4765227, “Hit to lead optimization of a series of N-[4-(1,3-benzothiazol-2-yl)phenyl]acetamides as monoacylglycerol lipase inhibitors with potential anticancer activity” (Eur J Med Chem, 2016)
# Legend:
# Type in all cases: functional
# Conditions in all cases: read-out: GI
# RPMI-8226 = test: Growth inhibition of human RPMI-8226 cells at 10 uM incubated for 48 hrs by sulforhodamine B assay relative to control
# U-251 = test: Growth inhibition of human U-251 cells at 10 uM incubated for 48 hrs by sulforhodamine B assay relative to control
# HCT-15 = test: Growth inhibition of human HCT-15 cells at 10 uM incubated for 48 hrs by sulforhodamine B assay relative to control
# HCT-116 = test: Growth inhibition of human HCT-116 cells at 10 uM incubated for 48 hrs by sulforhodamine B assay relative to control
# SK-MEL-5 = test: Growth inhibition of human SK-MEL-5 cells at 10 uM incubated for 48 hrs by sulforhodamine B assay relative to control
# MOLT-4 = test: Growth inhibition of human MOLT-4 cells at 10 uM incubated for 48 hrs by sulforhodamine B assay relative to control
# SF-268 = test: Growth inhibition of human SF-268 cells at 10 uM incubated for 48 hrs by sulforhodamine B assay relative to control
# LOX IMVI = test: Growth inhibition of human LOX IMVI cells at 10 uM incubated for 48 hrs by sulforhodamine B assay relative to control
# SF-295 = test: Growth inhibition of human SF-295 cells at 10 uM incubated for 48 hrs by sulforhodamine B assay relative to control
# NCI-H23 = test: Growth inhibition of human NCI-H23 cells at 10 uM incubated for 48 hrs by sulforhodamine B assay relative to control
# TK-10 = test: Growth inhibition of human TK-10 cells at 10 uM incubated for 48 hrs by sulforhodamine B assay relative to control
# HL-60(TB) = test: Growth inhibition of human HL-60(TB) cells at 10 uM incubated for 48 hrs by sulforhodamine B assay relative to control
# ACHN = test: Growth inhibition of human ACHN cells at 10 uM incubated for 48 hrs by sulforhodamine B assay relative to control
# SF-539 = test: Growth inhibition of human SF-539 cells at 10 uM incubated for 48 hrs by sulforhodamine B assay relative to control
# HOP-62 = test: Growth inhibition of human HOP-62 cells at 10 uM incubated for 48 hrs by sulforhodamine B assay relative to control
# T47D = test: Growth inhibition of human T47D cells at 10 uM incubated for 48 hrs by sulforhodamine B assay relative to control
# A549 = test: Growth inhibition of human A549/ATCC cells at 10 uM incubated for 48 hrs by sulforhodamine B assay relative to control
# NCI-H522 = test: Growth inhibition of human NCI-H522 cells at 10 uM incubated for 48 hrs by sulforhodamine B assay relative to control
# OVCAR-8 = test: Growth inhibition of human OVCAR-8 cells at 10 uM incubated for 48 hrs by sulforhodamine B assay relative to control
# DU-145 = test: Growth inhibition of human DU-145 cells at 10 uM incubated for 48 hrs by sulforhodamine B assay relative to control
# M14 = test: Growth inhibition of human M14 cells at 10 uM incubated for 48 hrs by sulforhodamine B assay relative to control
# SK-MEL-28 = test: Growth inhibition of human SK-MEL-28 cells at 10 uM incubated for 48 hrs by sulforhodamine B assay relative to control
# MDA-MB-231 = test: Growth inhibition of human MDA-MB-231 cells at 10 uM incubated for 48 hrs by sulforhodamine B assay relative to control
# SR = test: Growth inhibition of human SR cells at 10 uM incubated for 48 hrs by sulforhodamine B assay relative to control
# K562 = test: Growth inhibition of human K562 cells at 10 uM incubated for 48 hrs by sulforhodamine B assay relative to control
# SNB-19 = test: Growth inhibition of human SNB-19 cells at 10 uM incubated for 48 hrs by sulforhodamine B assay relative to control
# HOP-92 = test: Growth inhibition of human HOP-92 cells at 10 uM incubated for 48 hrs by sulforhodamine B assay relative to control
# UO-31 = test: Growth inhibition of human UO-31 cells at 10 uM incubated for 48 hrs by sulforhodamine B assay relative to control
# CCRF-CEM = test: Growth inhibition of human CCRF-CEM cells at 10 uM incubated for 48 hrs by sulforhodamine B assay relative to control
# UACC-62 = test: Growth inhibition of human UACC-62 cells at 10 uM incubated for 48 hrs by sulforhodamine B assay relative to control
# SN12C = test: Growth inhibition of human SN12C cells at 10 uM incubated for 48 hrs by sulforhodamine B assay relative to control
# SK-OV-3 = test: Growth inhibition of human SK-OV-3 cells at 10 uM incubated for 48 hrs by sulforhodamine B assay relative to control
# MDA-MB-435 = test: Growth inhibition of human MDA-MB-435 cells at 10 uM incubated for 48 hrs by sulforhodamine B assay relative to control
# RXF 393 = test: Growth inhibition of human RXF 393 cells at 10 uM incubated for 48 hrs by sulforhodamine B assay relative to control
# KM12 = test: Growth inhibition of human KM12 cells at 10 uM incubated for 48 hrs by sulforhodamine B assay relative to control
# MCF7 = test: Growth inhibition of human MCF7 cells at 10 uM incubated for 48 hrs by sulforhodamine B assay relative to control
# SNB-75 = test: Growth inhibition of human SNB-75 cells at 10 uM incubated for 48 hrs by sulforhodamine B assay relative to control
# OVCAR-4 = test: Growth inhibition of human OVCAR-4 cells at 10 uM incubated for 48 hrs by sulforhodamine B assay relative to control
# BT-549 = test: Growth inhibition of human BT-549 cells at 10 uM incubated for 48 hrs by sulforhodamine B assay relative to control
# HT-29 = test: Growth inhibition of human HT-29 cells at 10 uM incubated for 48 hrs by sulforhodamine B assay relative to control
# MDA-MB-468 = test: Growth inhibition of human MDA-MB-468 cells at 10 uM incubated for 48 hrs by sulforhodamine B assay relative to control
# PC-3 = test: Growth inhibition of human PC-3 cells at 10 uM incubated for 48 hrs by sulforhodamine B assay relative to control
# HCC 2998 = test: Growth inhibition of human HCC 2998 cells at 10 uM incubated for 48 hrs by sulforhodamine B assay relative to control
# UACC-257 = test: Growth inhibition of human UACC-257 cells at 10 uM incubated for 48 hrs by sulforhodamine B assay relative to control
compound,measurement,setting,value
O=C(CNc1nnc(-c2ccc(Cl)cc2)o1)Nc1ccc(-c2nc3ccccc3s2)cc1,inhibition of growth at 10 µM,RPMI-8226,4.61%
same,inhibition of growth at 10 µM,U-251,18.4%
same,inhibition of growth at 10 µM,HCT-15,10.4%
same,inhibition of growth at 10 µM,HCT-116,10.2%
same,inhibition of growth at 10 µM,SK-MEL-5,7.93%
same,inhibition of growth at 10 µM,MOLT-4,66.8%
same,inhibition of growth at 10 µM,SF-268,22.6%
same,inhibition of growth at 10 µM,LOX IMVI,143%
same,inhibition of growth at 10 µM,SF-295,-1.52%
same,inhibition of growth at 10 µM,NCI-H23,11.3%
same,inhibition of growth at 10 µM,TK-10,8.25%
same,inhibition of growth at 10 µM,HL-60(TB),6.27%
same,inhibition of growth at 10 µM,ACHN,-12%
same,inhibition of growth at 10 µM,SF-539,2.97%
same,inhibition of growth at 10 µM,HOP-62,-6.78%
same,inhibition of growth at 10 µM,T47D,20.1%
same,inhibition of growth at 10 µM,A549,4.18%
same,inhibition of growth at 10 µM,NCI-H522,22.9%
same,inhibition of growth at 10 µM,OVCAR-8,-2.95%
same,inhibition of growth at 10 µM,DU-145,1.53%
same,inhibition of growth at 10 µM,M14,-1.85%
same,inhibition of growth at 10 µM,SK-MEL-28,-16.7%
same,inhibition of growth at 10 µM,MDA-MB-231,1.2%
same,inhibition of growth at 10 µM,SR,28.2%
same,inhibition of growth at 10 µM,K562,14.4%
same,inhibition of growth at 10 µM,SNB-19,9.4%
same,inhibition of growth at 10 µM,HOP-92,12.1%
same,inhibition of growth at 10 µM,UO-31,26.7%
same,inhibition of growth at 10 µM,CCRF-CEM,46.7%
same,inhibition of growth at 10 µM,UACC-62,13.9%
same,inhibition of growth at 10 µM,SN12C,5.48%
same,inhibition of growth at 10 µM,SK-OV-3,-16.6%
same,inhibition of growth at 10 µM,MDA-MB-435,2.95%
same,inhibition of growth at 10 µM,RXF 393,-0.2%
same,inhibition of growth at 10 µM,KM12,2.99%
same,inhibition of growth at 10 µM,MCF7,65.5%
same,inhibition of growth at 10 µM,SNB-75,14.2%
same,inhibition of growth at 10 µM,OVCAR-4,-3.22%
same,inhibition of growth at 10 µM,BT-549,13%
same,inhibition of growth at 10 µM,HT-29,4.3%
same,inhibition of growth at 10 µM,MDA-MB-468,110%
same,inhibition of growth at 10 µM,PC-3,11.4%
same,inhibition of growth at 10 µM,HCC 2998,6.46%
same,inhibition of growth at 10 µM,UACC-257,-2.8%
Cc1cc(NCC(=O)Nc2ccc(-c3nc4ccccc4s3)cc2)no1,inhibition of growth at 10 µM,RPMI-8226,1.57%
same,inhibition of growth at 10 µM,U-251,11.9%
same,inhibition of growth at 10 µM,HCT-15,9.32%
same,inhibition of growth at 10 µM,HCT-116,9.26%
same,inhibition of growth at 10 µM,SK-MEL-5,12.3%
same,inhibition of growth at 10 µM,MOLT-4,53.2%
same,inhibition of growth at 10 µM,SF-268,12.6%
same,inhibition of growth at 10 µM,LOX IMVI,143%
same,inhibition of growth at 10 µM,SF-295,3.62%
same,inhibition of growth at 10 µM,NCI-H23,17.2%
same,inhibition of growth at 10 µM,TK-10,7.91%
same,inhibition of growth at 10 µM,HL-60(TB),3.55%
same,inhibition of growth at 10 µM,ACHN,-10.7%
same,inhibition of growth at 10 µM,SF-539,-5.46%
same,inhibition of growth at 10 µM,HOP-62,-10.9%
same,inhibition of growth at 10 µM,T47D,19.7%
same,inhibition of growth at 10 µM,A549,7.66%
same,inhibition of growth at 10 µM,NCI-H522,17.9%
same,inhibition of growth at 10 µM,OVCAR-8,3.61%
same,inhibition of growth at 10 µM,DU-145,4.13%
same,inhibition of growth at 10 µM,M14,-5.87%
same,inhibition of growth at 10 µM,SK-MEL-28,-10.5%
same,inhibition of growth at 10 µM,MDA-MB-231,-8.49%
same,inhibition of growth at 10 µM,SR,30.1%
same,inhibition of growth at 10 µM,K562,17%
same,inhibition of growth at 10 µM,SNB-19,3.47%
same,inhibition of growth at 10 µM,HOP-92,-0.34%
same,inhibition of growth at 10 µM,UO-31,23%
same,inhibition of growth at 10 µM,CCRF-CEM,46.3%
same,inhibition of growth at 10 µM,UACC-62,13.5%
same,inhibition of growth at 10 µM,SN12C,-2.43%
same,inhibition of growth at 10 µM,SK-OV-3,-19.7%
same,inhibition of growth at 10 µM,MDA-MB-435,-4.18%
same,inhibition of growth at 10 µM,RXF 393,-4.8%
same,inhibition of growth at 10 µM,KM12,-1.64%
same,inhibition of growth at 10 µM,MCF7,64.1%
same,inhibition of growth at 10 µM,SNB-75,-11.5%
same,inhibition of growth at 10 µM,OVCAR-4,-10.7%
same,inhibition of growth at 10 µM,BT-549,5.29%
same,inhibition of growth at 10 µM,HT-29,-4.71%
same,inhibition of growth at 10 µM,MDA-MB-468,147%
same,inhibition of growth at 10 µM,PC-3,3.37%
same,inhibition of growth at 10 µM,HCC 2998,0.84%
same,inhibition of growth at 10 µM,UACC-257,0.29%
